This is an account of results in US20240409585A1, “MACROCYCLIC IMMUNOMODULATORS” (priority 2021, published 2024).

Bridge positions count the residues as written; N and C are the ends. Square brackets hold non-standard residues; d marks the D form. Peptide text beside a SMILES is read from it. * marks the point of attachment. Phe(4-COOH) = N[C@@H](Cc1ccc(C(=O)O)cc1)C(=O)O; Bip = N[C@@H](Cc1ccc(-c2ccccc2)cc1)C(=O)O; Phe(2-CN) = N#Cc1ccccc1C[C@H](N)C(=O)O; Phe(3-F) = N[C@@H](Cc1cccc(F)c1)C(=O)O; Phe(3-Me) = Cc1cccc(C[C@H](N)C(=O)O)c1; 4Pal = N[C@@H](Cc1ccncc1)C(=O)O; Cha = N[C@@H](CC1CCCCC1)C(=O)O; Cit = NC(=O)NCCC[C@H](N)C(=O)O; dNMeNle = CCCC[C@@H](NC)C(=O)O; Carboxymethyl = O=C(O)C*; NMeA = CN[C@@H](C)C(=O)O; Dab = NCC[C@H](N)C(=O)O; Dap = NC[C@H](N)C(=O)O

The target of one assay is T1, PE-labeled human PD-L1-Ig binding to Jurkat cell line over-expressing human PD-1 (Jurkat-PD-1) (Homo sapiens, UniProt Q15116).
T1 construct: expressed in transfected cells; host or cells: Jurkat
T1 sequence (Q15116 25-288): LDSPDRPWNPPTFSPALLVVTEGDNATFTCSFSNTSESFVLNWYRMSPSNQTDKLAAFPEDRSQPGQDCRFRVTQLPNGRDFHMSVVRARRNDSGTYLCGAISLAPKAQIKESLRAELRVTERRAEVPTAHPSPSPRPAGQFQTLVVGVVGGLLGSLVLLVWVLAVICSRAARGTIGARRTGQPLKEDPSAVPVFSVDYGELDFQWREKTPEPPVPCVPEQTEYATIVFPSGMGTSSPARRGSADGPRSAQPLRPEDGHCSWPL
In words: Jurkat-PD-1 Cell Binding High-Content Screening Assay (CBA): Method 1. Particulars: Jurkat HPDL1 PD1 IC50 (Method 1), cells printed in nM, Jurkat-hPD-1 cells, PE-labeled PD-L1-Ig 20 nM final; unit nM.
One may read the IC50 as the concentration needed to halve the response being measured. Consider `CC(C)C[C@@H]1NC(=O)[C@H](CCN)NC(=O)[C@@H](CC(C)C)NC(=O)[C@H](C)N(C)C(=O)[C@H](C(C)C)NC(=O)[C@H](Cc2ccc(-c3ccccc3)cc2)NC(=O)[C@H](C(C)C)NC(=O)[C@H](Cc2c[nH]c3ccccc23)NC(=O)[C@H](CC(=O)O)NC(=O)[C@H](Cc2ccc(C(=O)O)cc2)NC(=O)[C@H](CN)NC(=O)CSC[C@@H](C(=O)N[C@@H](C)C(N)=O)NC(=O)[C@H]([C@@H](C)O)NC(=O)[C@H](C(C)C)NC1=O` [Compound 1416] ({CH2CO}-[Dap][Phe(4-COOH)]DWV[Bip]V[NMeA][dL][Dab]LVTCA-NH2; thioether N-14), for which the IC50 was determined as 4.7 nM.

The assay is the same for the next values; noted with them: Jurkat-hPD-1 cells, PE-labeled PD-L1-Ig 20 nM final; read-out: Jurkat HPDL1 PD1 IC50 (uM) (Method 1).
As to `CC(C)C[C@@H]1NC(=O)[C@H](CCN)NC(=O)[C@@H](CC(C)C)NC(=O)[C@H](C)N(C)C(=O)[C@H](CCCNC(N)=O)NC(=O)[C@H](Cc2ccc(-c3ccccc3)cc2)NC(=O)[C@H](C(C)C)NC(=O)[C@H](Cc2c[nH]c3ccccc23)NC(=O)[C@H](CC(=O)O)NC(=O)[C@H](Cc2ccncc2)NC(=O)[C@H](CN)NC(=O)CSC[C@@H](C(=O)N[C@@H](C)C(N)=O)NC(=O)[C@H]([C@@H](C)O)NC(=O)[C@H](C(C)C)NC1=O` [Compound 1545] ({CH2CO}-[Dap][4Pal]DWV[Bip][Cit][NMeA][dL][Dab]LVTCA-NH2; thioether N-14), the IC50 is 40 nM. Turning to `CC(C)C[C@@H]1NC(=O)[C@H](CCN)NC(=O)[C@@H](CC(C)C)NC(=O)[C@H](C)N(C)C(=O)[C@H](CCCNC(=N)N)NC(=O)[C@H](Cc2ccc(-c3ccccc3)cc2)NC(=O)[C@H](C(C)C)NC(=O)[C@H](Cc2ccccc2C#N)NC(=O)[C@H](CC(=O)O)NC(=O)[C@H](Cc2ccc(O)cc2)NC(=O)[C@H](Cc2ccccc2)NC(=O)CSC[C@@H](C(=O)N[C@@H](C)C(N)=O)NC(=O)[C@H]([C@@H](C)O)NC(=O)[C@H](C(C)C)NC1=O` [Compound 1204] ({CH2CO}-FYD[Phe(2-CN)]V[Bip]R[NMeA][dL][Dab]LVTCA-NH2; thioether N-14), the IC50 was 330 nM. For the compound `CC(C)C[C@@H]1NC(=O)[C@H](CCN)NC(=O)[C@@H](CC(C)C)NC(=O)[C@H](C)N(C)C(=O)[C@H](CCCNC(=N)N)NC(=O)[C@H](Cc2ccc(-c3ccccc3)cc2)NC(=O)[C@H](C(C)C)NC(=O)[C@H](Cc2c[nH]c3ccccc23)NC(=O)[C@H](CC(=O)O)NC(=O)[C@H](Cc2cccc(F)c2)NC(=O)[C@H](CC(N)=O)NC(=O)CSC[C@@H](C(=O)N[C@@H](C)C(N)=O)NC(=O)[C@H]([C@@H](C)O)NC(=O)[C@H](C(C)C)NC1=O` [Compound 1309] ({CH2CO}-N[Phe(3-F)]DWV[Bip]R[NMeA][dL][Dab]LVTCA-NH2; thioether N-14), the IC50 turned out to be 90 nM.

For `CC(C)C[C@@H]1NC(=O)[C@H](CCN)NC(=O)[C@@H](CC(C)C)NC(=O)[C@H](C)N(C)C(=O)[C@H]([C@@H](C)O)NC(=O)[C@H](Cc2ccc(-c3ccccc3)cc2)NC(=O)[C@H](C(C)C)NC(=O)[C@H](Cc2c[nH]c3ccccc23)NC(=O)[C@H](CC(=O)O)NC(=O)[C@H](Cc2ccc(O)cc2)NC(=O)[C@H](CC(N)=O)NC(=O)CSC[C@@H](C(=O)N[C@@H](C)C(N)=O)NC(=O)[C@H]([C@@H](C)O)NC(=O)[C@H](C(C)C)NC1=O` [Compound 1300] ({CH2CO}-NYDWV[Bip]T[NMeA][dL][Dab]LVTCA-NH2; thioether N-14), the IC50 stood at 20 nM. The same measure, in the same setting: for `CCCC[C@@H]1C(=O)N[C@@H](Cc2ccc(OCC(=O)O)cc2)C(=O)N[C@@H](CC(=O)O)C(=O)N[C@@H](Cc2cccc(C)c2)C(=O)N[C@@H](Cc2ccc(OCC(=O)O)cc2)C(=O)N[C@@H](Cc2ccc(-c3ccccc3)cc2)C(=O)N[C@@H](Cc2ccc(OCC(=O)O)cc2)C(=O)N(C)[C@@H](C)C(=O)N[C@H](CC(C)C)C(=O)N[C@@H](CCN)C(=O)N[C@@H](CC2CCCCC2)C(=O)N[C@@H](C(C)C)C(=O)N[C@@H](CO)C(=O)N[C@H](C(=O)N[C@@H](CCN)C(N)=O)CSCC(=O)N1C` [Compound 1859] ({CH2CO}-[dNMeNle]Y(Carboxymethyl)D[Phe(3-Me)]Y(Carboxymethyl)[Bip]Y(Carboxymethyl)[NMeA][dL][Dab][Cha]VSC[Dab]-NH2; thioether N-14) the value was 50 nM; for `CC(C)C[C@@H]1NC(=O)[C@H](CCN)NC(=O)[C@@H](CC(C)C)NC(=O)[C@H](C)N(C)C(=O)[C@H](CC(N)=O)NC(=O)[C@H](Cc2ccc(-c3ccccc3)cc2)NC(=O)[C@H](C(C)C)NC(=O)[C@H](Cc2c[nH]c3ccccc23)NC(=O)[C@H](CC(=O)O)NC(=O)[C@H](Cc2ccc(O)cc2)NC(=O)[C@H](CC(N)=O)NC(=O)CSC[C@@H](C(=O)N[C@@H](C)C(N)=O)NC(=O)[C@H]([C@@H](C)O)NC(=O)[C@H](C(C)C)NC1=O` [Compound 1259] ({CH2CO}-NYDWV[Bip]N[NMeA][dL][Dab]LVTCA-NH2; thioether N-14), 110 nM; for `CC(C)C[C@@H]1NC(=O)[C@H](CCN)NC(=O)[C@@H](CC(C)C)NC(=O)[C@H](C)N(C)C(=O)[C@H](Cc2cnc[nH]2)NC(=O)[C@H](Cc2ccc(-c3ccccc3)cc2)NC(=O)[C@H](C(C)C)NC(=O)[C@H](Cc2c[nH]c3ccccc23)NC(=O)[C@H](CC(=O)O)NC(=O)[C@H](Cc2ccc(OCC(=O)O)cc2)NC(=O)[C@H](CN)NC(=O)CSC[C@@H](C(=O)N[C@@H](C)C(N)=O)NC(=O)[C@H]([C@@H](C)O)NC(=O)[C@H](C(C)C)NC1=O` [Compound 1438] ({CH2CO}-[Dap]Y(Carboxymethyl)DWV[Bip]H[NMeA][dL][Dab]LVTCA-NH2; thioether N-14), 70 nM. For `CC(C)C[C@@H]1NC(=O)[C@H](CCCNC(=N)N)NC(=O)[C@@H](CC(C)C)NC(=O)[C@H](C)N(C)C(=O)[C@H](CCC(=O)O)NC(=O)[C@H](Cc2ccc(-c3ccccc3)cc2)NC(=O)[C@H](C(C)C)NC(=O)[C@H](Cc2c[nH]c3ccccc23)NC(=O)[C@H](CC(=O)O)NC(=O)[C@H](Cc2ccc(O)cc2)NC(=O)[C@H](Cc2ccccc2)NC(=O)CSC[C@@H](C(=O)N[C@@H](CCC(=O)O)C(N)=O)NC(=O)[C@H]([C@@H](C)O)NC(=O)[C@H](C(C)C)NC1=O` [Compound 1135] ({CH2CO}-FYDWV[Bip]E[NMeA][dL]RLVTCE-NH2; thioether N-14), the IC50 is 140 nM. Same read-out and setting: for `CC(C)C[C@@H]1NC(=O)[C@H](CCCNC(=N)N)NC(=O)[C@@H](CC(C)C)NC(=O)[C@H](C)N(C)C(=O)[C@H](CCCNC(=N)N)NC(=O)[C@H](Cc2ccc(-c3ccccc3)cc2)NC(=O)[C@H](C(C)C)NC(=O)[C@H](Cc2c[nH]c3ccccc23)NC(=O)[C@H](CC(=O)O)NC(=O)[C@H](Cc2ccc(OCC(=O)O)cc2)NC(=O)[C@H](Cc2ccccc2)NC(=O)CSC[C@@H](C(=O)N[C@@H](C)C(N)=O)NC(=O)[C@H]([C@@H](C)O)NC(=O)[C@H](C(C)C)NC1=O` [Compound 1094] ({CH2CO}-FY(Carboxymethyl)DWV[Bip]R[NMeA][dL]RLVTCA-NH2; thioether N-14) the value was 770 nM.

With `CC(C)C[C@@H]1NC(=O)[C@H](CCCNC(=N)N)NC(=O)[C@@H](CC(C)C)NC(=O)[C@H](C)N(C)C(=O)[C@H](CCCNC(N)=O)NC(=O)[C@H](Cc2ccc(-c3ccccc3)cc2)NC(=O)[C@H](C(C)C)NC(=O)[C@H](Cc2c[nH]c3ccccc23)NC(=O)[C@H](CC(=O)O)NC(=O)[C@H](Cc2ccc(O)cc2)NC(=O)[C@H](CC(N)=O)NC(=O)CSC[C@@H](C(=O)N[C@@H](C)C(N)=O)NC(=O)[C@H](CO)NC(=O)[C@H](C(C)C)NC1=O` [Compound 1227] ({CH2CO}-NYDWV[Bip][Cit][NMeA][dL]RLVSCA-NH2; thioether N-14), the IC50 worked out at 40 nM.
